Laboratory results as given in US9353083B2, “Oxazetidine derivatives, process for preparing them and use in human medicine and in cosmetics” (GALDERMA RESEARCH & DEVELOPMENT, priority 2011, dated 2016).

Legend:
Assay type in all cases: cell-based
[1] = target: hERG potassium channel (Homo sapiens (Human), UniProt Q12809); experiment: hERG channel test: effect on amplitude of IKr in hERG transfected cells; details: for effect on the amplitude of IKr encoded by hERG (change in percentage relative to the control): hERG transfected human cells; for effect observed on the amplitude of IKr (in words): 1, 3 and 10 μM; for IC50: estimated from 1, 3 and 10 μM, read-out: Estimated IC50 for hERG channel blockade; for lengthening the QT time (conclusion from hERG test): under the experimental conditions; for concentration from which the decrease of the amplitude of IKr starts: tested at 1, 3 and 10 μM; for decrease of the amplitude of IKr: with 10 μM
Method: The object of the study was to track down the inhibition profile of seven selective compounds from human cell lines stably transfected with the gene for expressing the IKr protein of the hERG potassium channel. Several MC1R agonist compounds and especially the compounds of interest in the context of the invention were evaluated. The toxicity evaluation was performed using three increasing concentrations (1, 3 and 10 μM) of 2 hERG transfected cells (no reference compound used) of the following compounds: • Compound 1: N-[(R)-2-[3-(4-hydroxybutoxy)-3-o-tolylazetidin-1-yl]-1-(4-methoxybenzyl)-2-oxoethyl]-3-(1H-imidazol-4-yl)propionamide • Compound 2: (S)-N-[(R)-2-(3-butoxy-3-o-tolylazetidin-1-yl)-1-(4-methoxybenzyl)-2-oxoethyl]-2-hydroxy-3-(1H-imidazol-4-yl)propionamide • Compound 3: 3-(1H-imidazol-4-yl)-N-{(R)-1-(4-methoxybenzyl)-2-oxo-2-[3-o-tolyl-3-(4,4,4-trifluorobutoxy)azetidin-1-yl]ethyl}propionamide • Compound 4: N-[(R)-2-(3-but-2-ynyloxy-3-o-tolylazetidin-1-yl)-1-(4-methoxybenzyl)-2-oxoethyl]-3-(5-methyl-1H-imidazol-4-yl)propionamide • Compound 5: N-[(R)-2-(3-cyclobutylmethoxy-3-o-tolylazetidin-1-yl)-1-(4-methoxybenzyl)-2-oxoethyl]-3-(5-methyl-1H-imidazol-4-yl)propionamide • Compound 6: N-[(R)-2-(3-cyclopropylmethoxy-3-o-tolylazetidin-1-yl)-1-(4-methoxybenzyl)-2-oxoethyl]-3-(5-methyl-1H-imidazol-4-yl)propionamide • Compound 7: N-[(R)-2-(3-butoxy-3-o-tolylazetidin-1-yl)-1-(4-methoxybenzyl)-2-oxoethyl]-3-guanidinopropionamide; bis(trifluoroacetic acid) salt
The effect on the amplitude of IKr encoded by hERG (as the changes in percentages relative to the control) are summarized per compound and per concentration in Table 1 below.

[2] = target: hMC4R (Homo sapiens (Human), UniProt P32245); experiment: Transactivation test melanocortin receptors (CRE-Luc, HEK293), hMC4R; details: HEK293, pCRE-Luc, agonist mode; read-out: EC50 hMC4-R
Method: The aim of this example is to show the Melanocortine receptor selectivity of compound 1 and compound 6 of the present invention: • Cells: The lines HEK293 are transfected with vectors pCRE-Luc and hMC1R or hMC4R. The cells are cultured at 37° C. and 5% CO2, in DMEM medium supplemented with 10% foetal calf serum. • Test principle: In the presence of an activator (agonist), the melanocortin receptor will activate the cAMP pathway, which, via the vector CRE-Luc, will lead to the synthesis of luciferase. After addition of a lysis buffer containing a luminescent luciferase substrate, the luminescence proportional to the degree of activation or inhibition of receptor may be measured. • Testing the products: The products are dissolved at 10 mM in DMSO. They are tested as a response dose at 0.1% of DMSO final. The range comprising 10 points and a zero starts at 10 μM with four-fold dilutions. To test agonists, the products are tested alone. To determine the antagonist behaviour, the products of interest are tested in the presence of 1 nM NDP-MSH (reference agonist). […] After adding the lysis buffer containing luciferin, the plates are read in a Top-Count machine. […] An EC50 is calculated for each product using the XLFit software.

[3] = target: hMC1R (Homo sapiens (Human), UniProt Q01726); experiment: Transactivation test melanocortin receptors (CRE-Luc, HEK293), hMC1R; details: for EC50: HEK293, pCRE-Luc, agonist mode, read-out: EC50 hMC1-R
Method: The aim of this example is to show the Melanocortine receptor selectivity of compound 1 and compound 6 of the present invention: • Cells: The lines HEK293 are transfected with vectors pCRE-Luc and hMC1R or hMC4R. The cells are cultured at 37° C. and 5% CO2, in DMEM medium supplemented with 10% foetal calf serum. • Test principle: In the presence of an activator (agonist), the melanocortin receptor will activate the cAMP pathway, which, via the vector CRE-Luc, will lead to the synthesis of luciferase. After addition of a lysis buffer containing a luminescent luciferase substrate, the luminescence proportional to the degree of activation or inhibition of receptor may be measured. • Testing the products: The products are dissolved at 10 mM in DMSO. They are tested as a response dose at 0.1% of DMSO final. The range comprising 10 points and a zero starts at 10 μM with four-fold dilutions. To test agonists, the products are tested alone. To determine the antagonist behaviour, the products of interest are tested in the presence of 1 nM NDP-MSH (reference agonist). The cells are inoculated at a rate of 5000 cells per well (384-well plate) in serum-free DMEM medium and incubated overnight at 37° C. and 5% CO2. • The products and the reference ligand (NDP-MSH) are added the following day and the plates are reincubated for 6 hours at 37° C. and 5% CO2. After adding the lysis buffer containing luciferin, the plates are read in a Top-Count machine. The results are normalized as percentage of activity using the 100% (cells+NDP-MSH at 10 nM) and 0% (cells alone) controls. An EC50 is calculated for each product using the XLFit software.

hERG potassium channel, sequence (Q12809 whole entry): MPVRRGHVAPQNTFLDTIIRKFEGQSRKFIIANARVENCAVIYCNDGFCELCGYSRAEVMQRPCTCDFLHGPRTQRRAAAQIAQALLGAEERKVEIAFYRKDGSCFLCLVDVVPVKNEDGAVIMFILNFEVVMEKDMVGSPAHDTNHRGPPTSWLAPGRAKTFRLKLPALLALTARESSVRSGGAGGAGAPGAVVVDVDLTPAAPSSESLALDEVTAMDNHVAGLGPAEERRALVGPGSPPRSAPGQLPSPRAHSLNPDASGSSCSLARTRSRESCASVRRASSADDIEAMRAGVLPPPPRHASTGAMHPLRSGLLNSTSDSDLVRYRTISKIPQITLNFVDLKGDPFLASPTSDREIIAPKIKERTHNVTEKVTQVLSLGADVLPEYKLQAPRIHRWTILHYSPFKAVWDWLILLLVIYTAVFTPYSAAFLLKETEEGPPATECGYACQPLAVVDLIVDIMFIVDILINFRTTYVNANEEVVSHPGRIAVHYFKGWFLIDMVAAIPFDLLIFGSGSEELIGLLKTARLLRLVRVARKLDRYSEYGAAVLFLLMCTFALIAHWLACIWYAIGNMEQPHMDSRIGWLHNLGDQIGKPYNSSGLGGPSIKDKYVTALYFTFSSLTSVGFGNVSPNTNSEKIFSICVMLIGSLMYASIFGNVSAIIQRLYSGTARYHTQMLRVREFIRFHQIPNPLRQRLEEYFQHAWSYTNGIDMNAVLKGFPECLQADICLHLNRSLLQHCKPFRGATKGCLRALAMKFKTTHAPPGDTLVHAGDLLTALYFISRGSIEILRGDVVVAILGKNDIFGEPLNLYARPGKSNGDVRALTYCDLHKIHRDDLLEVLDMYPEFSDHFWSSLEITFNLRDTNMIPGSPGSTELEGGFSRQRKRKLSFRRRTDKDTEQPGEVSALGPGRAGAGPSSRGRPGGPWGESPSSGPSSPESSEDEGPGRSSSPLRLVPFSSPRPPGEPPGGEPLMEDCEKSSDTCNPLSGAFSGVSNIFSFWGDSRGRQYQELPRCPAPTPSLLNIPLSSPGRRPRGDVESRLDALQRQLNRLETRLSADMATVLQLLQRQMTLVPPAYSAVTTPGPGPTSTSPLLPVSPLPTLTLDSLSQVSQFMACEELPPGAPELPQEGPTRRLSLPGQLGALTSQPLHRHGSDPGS
hMC1R, sequence (Q01726 whole entry): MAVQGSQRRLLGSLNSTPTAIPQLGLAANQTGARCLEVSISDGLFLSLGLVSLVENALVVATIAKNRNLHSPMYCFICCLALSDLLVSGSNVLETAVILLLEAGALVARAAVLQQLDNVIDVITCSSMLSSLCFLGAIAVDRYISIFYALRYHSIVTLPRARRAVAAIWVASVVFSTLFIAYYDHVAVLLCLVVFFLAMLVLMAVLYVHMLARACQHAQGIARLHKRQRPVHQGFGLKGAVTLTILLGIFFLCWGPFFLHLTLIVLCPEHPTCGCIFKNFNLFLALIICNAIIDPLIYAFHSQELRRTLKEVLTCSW
hMC4R, sequence (P32245 whole entry): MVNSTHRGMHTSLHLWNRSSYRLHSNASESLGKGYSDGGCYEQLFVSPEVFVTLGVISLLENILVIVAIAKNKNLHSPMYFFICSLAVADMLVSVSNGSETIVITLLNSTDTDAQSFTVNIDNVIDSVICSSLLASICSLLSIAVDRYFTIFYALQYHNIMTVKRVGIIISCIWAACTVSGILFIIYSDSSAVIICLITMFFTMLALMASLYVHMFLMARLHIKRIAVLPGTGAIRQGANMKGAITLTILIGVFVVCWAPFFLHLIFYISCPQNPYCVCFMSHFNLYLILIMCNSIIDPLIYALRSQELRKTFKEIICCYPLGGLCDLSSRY

Row | Structure (SMILES) | effect on the amplitude of IKr encoded by hERG (change in percentage relative to the control) ([1]; 1 μM) | effect on the amplitude of IKr encoded by hERG (change in percentage relative to the control) ([1]; 3 μM) [%] | effect on the amplitude of IKr encoded by hERG (change in percentage relative to the control) ([1]; 10 μM) [%] | effect observed on the amplitude of IKr (in words) [1] | IC50 [1] [µM] | lengthening the QT time (conclusion from hERG test) [1] | concentration from which the decrease of the amplitude of IKr starts [1] [nM] | decrease of the amplitude of IKr [1] [%] | cardiotoxic alert on the hERG channel test [1] | EC50 [2] [µM] | melanocortin receptor selectivity (hMC1R versus hMC4R) [3] | EC50 [3] [µM]
1 | CCCCOC1(c2ccccc2C)CN(C(=O)[C@@H](Cc2ccc(OC)cc2)NC(=O)[C@@H](O)Cc2c[nH]cn2)C1 [Compound 2, (S)-N-[(R)-2-(3-butoxy-3-o-tolylazetidin-1-yl)-1-(4-methoxybenzyl)-2-oxoethyl]-2-hydroxy-3-(1H-imidazol-4-yl)propionamide] | +1.0 ± 1.0% | −5.0 ± 5.0 | −51.5 ± 6.5 | modified but only at the highest concentration | 10 | more substantially | – | – | – | – | – | –
2 | COc1ccc(C[C@@H](NC(=O)CCc2c[nH]cn2)C(=O)N2CC(OCCCC(F)(F)F)(c3ccccc3C)C2)cc1 [Compound 3, 3-(1H-imidazol-4-yl)-N-{(R)-1-(4-methoxybenzyl)-2-oxo-2-[3-o-tolyl-3-(4,4,4-trifluorobutoxy)azetidin-1-yl]ethyl}propionamide] | −16.0 ± 3.0% | −42.5 ± 5.5 | −86.5 ± 3.5 | dose effect observed | > 3 | more substantially | 1000 | 86.5 | – | – | – | –
3 | COc1ccc(C[C@@H](NC(=O)CCc2c[nH]cn2)C(=O)N2CC(OCCCCO)(c3ccccc3C)C2)cc1 [Compound 1, N-[(R)-2-[3-(4-hydroxybutoxy)-3-o-tolylazetidin-1-yl]-1-(4-methoxybenzyl)-2-oxoethyl]-3-(1H-imidazol-4-yl)propionamide] | −1.5 ± 2.5% | −3.0 ± 1.0 | −7.5 ± 3.5 | no effect observed | – | did not exhibit this characteristic | – | – | do not present any cardiotoxic alert | 8 | hMC1R highly selective | 0.25
4 | CC#CCOC1(c2ccccc2C)CN(C(=O)[C@@H](Cc2ccc(OC)cc2)NC(=O)CCc2nc[nH]c2C)C1 [Compound 4, N-[(R)-2-(3-but-2-ynyloxy-3-o-tolylazetidin-1-yl)-1-(4-methoxybenzyl)-2-oxoethyl]-3-(5-methyl-1H-imidazol-4-yl)propionamide] | −20.5 ± 9.5% | −22.0 ± 10.0 | −42.5 ± 2.5 | dose effect observed | > 10 | more substantially | 3000 | 42.5 | – | – | – | –
5 | CCCCOC1(c2ccccc2C)CN(C(=O)[C@@H](Cc2ccc(OC)cc2)NC(=O)CCNC(=N)N)C1 [Compound 7, N-[(R)-2-(3-butoxy-3-o-tolylazetidin-1-yl)-1-(4-methoxybenzyl)-2-oxoethyl]-3-guanidinopropionamide] | −19.5 ± 4.5% | −29.5 ± 9.5 | −33.0 ± 12.0 | slight dose effect observed | > 10 | slightly | 1000 | 33 | – | – | – | –
6 | COc1ccc(C[C@@H](NC(=O)CCc2nc[nH]c2C)C(=O)N2CC(OCC3CC3)(c3ccccc3C)C2)cc1 [Compound 6, N-[(R)-2-(3-cyclopropylmethoxy-3-o-tolylazetidin-1-yl)-1-(4-methoxybenzyl)-2-oxoethyl]-3-(5-methyl-1H-imidazol-4-yl)propionamide] | −5.0 ± 3.0% | −9.5 ± 3.5 | −16.0 ± 7.0 | no effect observed | – | did not exhibit this characteristic | – | – | do not present any cardiotoxic alert | 4.5 | hMC1R highly selective | 0.07
7 | COc1ccc(C[C@@H](NC(=O)CCc2nc[nH]c2C)C(=O)N2CC(OCC3CCC3)(c3ccccc3C)C2)cc1 [Compound 5, N-[(R)-2-(3-cyclobutylmethoxy-3-o-tolylazetidin-1-yl)-1-(4-methoxybenzyl)-2-oxoethyl]-3-(5-methyl-1H-imidazol-4-yl)propionamide] | −17.0 ± 4.0% | −49.5 ± 16.5 | −76.5 ± 17.5 | dose effect observed | 3 | more substantially | 1000 | 76.5 | – | – | – | –
